Experimental data: ChEMBL document CHEMBL1201862, “PubChem BioAssay data set” (2004)
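Briefly, cells in 96-well plates were exposed to five compound concentrations for 48 h, and endpoints were estimated by linear interpolation. GI50: concentration for 50% inhibition of growth.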 Activity calls are given as the source filed them. Cut-off read from the data, not from the text of the source: active = GI50 up to about 1.1 µM and inactive = higher.

Columns and labels:
Assay in all cases: inhibition of tumour cell growth, NCI panel, 48 h
HCT-15 = test system: HCT-15
OVCAR-3 = test system: OVCAR-3
KM12 = test system: KM12
UO-31 = test system: UO-31
EKVX = test system: EKVX
SK-MEL-5 = test system: SK-MEL-5
HT-29 = test system: HT-29
Malme-3M = test system: Malme-3M
IGROV-1 = test system: IGROV-1
A498 = test system: A498
ACHN = test system: ACHN
SK-MEL-2 = test system: SK-MEL-2
OVCAR-4 = test system: OVCAR-4
MOLT-4 = test system: MOLT-4
NCI-H460 = test system: NCI-H460
HCC 2998 = test system: HCC 2998
DMS-114 = test system: DMS-114
HOP-92 = test system: HOP-92
BT-549 = test system: BT-549
Hs-578T = test system: Hs-578T

| SMILES | GI50 (HCT-15) [µM] | GI50 (OVCAR-3) | GI50 (KM12) | GI50 (UO-31) | GI50 (EKVX) | GI50 (SK-MEL-5) | GI50 (HT-29) | GI50 (Malme-3M) | GI50 (IGROV-1) | GI50 (A498) | GI50 (ACHN) | GI50 (SK-MEL-2) | GI50 (OVCAR-4) | GI50 (MOLT-4) | GI50 (NCI-H460) | GI50 (HCC 2998) | GI50 (DMS-114) | GI50 (HOP-92) | GI50 (BT-549) | GI50 (Hs-578T) |
| --- | --- | --- | --- | --- | --- | --- | --- | --- | --- | --- | --- | --- | --- | --- | --- | --- | --- | --- | --- | --- |
| COc1cc(C(C)c2cc3c(cc2OCCN)OCO3)cc(OC)c1OC (stereo unspecified) | > 100 | > 100 µM (inactive) | 28.4 µM (inactive) | 50.8 µM (inactive) | 36.2 µM (inactive) | > 10 µM (inactive) | > 100 µM (inactive) | > 100 µM (inactive) | > 100 µM (inactive) | > 100 µM (inactive) | > 100 µM (inactive) | 64.3 µM (inactive) | > 100 µM (inactive) | 10.9 µM (inactive) | > 100 µM (inactive) | > 100 µM (inactive) | 52 µM (inactive) | – | – | – |
| COc1ccc(N2C(=O)C3c4[nH]c5ccc(OC)cc5c4C4CCC(C(C)(C)C)CC4C3C2=O)cc1 (stereo unspecified) | > 100 | 92.3 µM (inactive) | 34.3 µM (inactive) | > 100 µM (inactive) | 24.7 µM (inactive) | 21.1 µM (inactive) | 32.5 µM (inactive) | 7.03 µM (inactive) | 51.2 µM (inactive) | 19.6 µM (inactive) | 28.5 µM (inactive) | 17.5 µM (inactive) | 4.71 µM (inactive) | 28.6 µM (inactive) | 16.6 µM (inactive) | 45.3 µM (inactive) | 34.4 µM (inactive) | 10.7 µM (inactive) | – | – |
| Cn1c(C2CCCc3c2c2ccccc2n3C)cc2ccccc21 (stereo unspecified) | 43.1 | 36.2 µM (inactive) | 30.6 µM (inactive) | – | 115 µM (inactive) | 72.9 µM (inactive) | 83 µM (inactive) | 20.5 µM (inactive) | 31.6 µM (inactive) | – | > 318 µM (inactive) | 85.7 µM (inactive) | – | 89.5 µM (inactive) | 125 µM (inactive) | 186 µM (inactive) | 34.3 µM (inactive) | 1.5 µM (inactive) | – | – |
| CCCCCCCCCC[C@@H](O)[C@@H]1CC[C@H]([C@H]2CC[C@@H]([C@@H](O)CCCCCCCCCC[C@H]3CC(CC(C)=O)C(=O)O3)O2)O1 (stereo partly specified) | 4.55 | 0.171 µM (active) | – | 1.08 µM (active) | 7.16 µM (inactive) | < 0.01 µM (active) | 15.8 µM (inactive) | 3.15 µM (inactive) | 12.8 µM (inactive) | 16.2 µM (inactive) | – | 14.4 µM (inactive) | < 0.01 µM (active) | 1.67 µM (inactive) | 15.7 µM (inactive) | 25.5 µM (inactive) | < 0.01 µM (active) | 14.7 µM (inactive) | – | – |
| C/C(=N/NC(N)=S)C(CN(C)C)C(C1=C(O)c2ccccc2OC1)c1ccccc1 (stereo unspecified) | > 100 | > 100 µM (inactive) | > 100 µM (inactive) | > 100 µM (inactive) | > 100 µM (inactive) | > 100 µM (inactive) | > 100 µM (inactive) | > 100 µM (inactive) | > 100 µM (inactive) | > 100 µM (inactive) | > 100 µM (inactive) | > 100 µM (inactive) | > 100 µM (inactive) | > 100 µM (inactive) | > 100 µM (inactive) | > 100 µM (inactive) | > 100 µM (inactive) | – | – | – |
| C/C=C(/C)C(=O)O[C@H]1[C@H](O)CC(c2ccc3c(c2O)C(=O)C2=C(O)C4(OC)C(=O)C(C(N)=O)=C(O)[C@H](CC(=O)c5ccccc5O)C4CC2[C@@]3(C)OC)O[C@@H]1C (stereo partly specified) | 0.00507 | 0.00454 µM (active) | 0.00647 µM (active) | 0.041 µM (active) | 0.0396 µM (active) | 0.001 µM (active) | 0.00246 µM (active) | 0.0182 µM (active) | 0.00577 µM (active) | 0.0422 µM (active) | 0.00418 µM (active) | 0.00621 µM (active) | 0.0849 µM (active) | 0.148 µM (active) | 0.00178 µM (active) | 0.0326 µM (active) | 0.01 µM (active) | 0.0218 µM (active) | 0.0187 µM (active) | 0.0041 µM (active) |
| O=C(O)C1CCC(=O)N1C(=O)C(Cl)c1ccccc1 (stereo unspecified) | > 100 | > 100 µM (inactive) | > 100 µM (inactive) | > 100 µM (inactive) | > 100 µM (inactive) | > 100 µM (inactive) | > 100 µM (inactive) | > 100 µM (inactive) | > 100 µM (inactive) | > 100 µM (inactive) | > 100 µM (inactive) | > 100 µM (inactive) | > 100 µM (inactive) | > 100 µM (inactive) | > 100 µM (inactive) | > 100 µM (inactive) | > 100 µM (inactive) | > 100 µM (inactive) | – | – |
| N=c1c2ccccc2sc2nc3ccccc3n12 | – | – | > 100 µM (inactive) | > 100 µM (inactive) | 86.1 µM (inactive) | > 100 µM (inactive) | > 100 µM (inactive) | > 100 µM (inactive) | > 100 µM (inactive) | > 100 µM (inactive) | > 100 µM (inactive) | > 100 µM (inactive) | 33.9 µM (inactive) | > 100 µM (inactive) | > 100 µM (inactive) | > 100 µM (inactive) | > 100 µM (inactive) | > 100 µM (inactive) | – | – |
| COc1cc2ccnc([C@@H](OC(=O)c3ccccc3)c3ccc(OC)c(OC)c3OC)c2cc1OC | 42.4 | 27.8 µM (inactive) | 36.9 µM (inactive) | 18.9 µM (inactive) | > 100 µM (inactive) | 23.1 µM (inactive) | 37.7 µM (inactive) | 36.2 µM (inactive) | > 100 µM (inactive) | 36.1 µM (inactive) | 32.7 µM (inactive) | 60.4 µM (inactive) | 31 µM (inactive) | 41.6 µM (inactive) | 33.6 µM (inactive) | 36.5 µM (inactive) | 33.1 µM (inactive) | 23.3 µM (inactive) | – | – |
| COc1ccc(C2[C@@H](Cl)C(=O)N2c2ccc(OC)cc2)cc1 (stereo partly specified) | – | 93.1 µM (inactive) | > 100 µM (inactive) | 56.8 µM (inactive) | > 100 µM (inactive) | > 100 µM (inactive) | > 100 µM (inactive) | 45.9 µM (inactive) | > 100 µM (inactive) | 12.2 µM (inactive) | 41.8 µM (inactive) | 62.5 µM (inactive) | – | 35.9 µM (inactive) | 51.4 µM (inactive) | > 100 µM (inactive) | 53 µM (inactive) | 11.6 µM (inactive) | – | – |
| CCNC(=O)/C(=C/c1ccc(OC)cc1)c1cc(OC)c(OC)c(OC)c1 | 4.11 | 3.78 µM (inactive) | 4.23 µM (inactive) | 20.1 µM (inactive) | 64.1 µM (inactive) | 3.71 µM (inactive) | 3.41 µM (inactive) | 5.53 µM (inactive) | 19.7 µM (inactive) | 14.9 µM (inactive) | 32.8 µM (inactive) | 7.57 µM (inactive) | 68.2 µM (inactive) | 7.35 µM (inactive) | 5.31 µM (inactive) | 4.68 µM (inactive) | 11.7 µM (inactive) | 28.3 µM (inactive) | 14.4 µM (inactive) | 5.26 µM (inactive) |
| Nc1ccc2n[se]nc2c1 | > 100 | – | 48.1 µM (inactive) | > 100 µM (inactive) | > 100 µM (inactive) | > 100 µM (inactive) | > 100 µM (inactive) | > 100 µM (inactive) | > 100 µM (inactive) | > 100 µM (inactive) | > 100 µM (inactive) | 79.1 µM (inactive) | > 100 µM (inactive) | > 100 µM (inactive) | > 100 µM (inactive) | > 100 µM (inactive) | > 100 µM (inactive) | – | – | – |
| Cc1c(C(=O)C/C(=N\O)C(=O)Nc2cc(Cl)c(Cl)cc2Cl)[n+]([O-])c2ccccc2[n+]1[O-] | 8.17 | 2.37 µM (inactive) | 11.1 µM (inactive) | 24.3 µM (inactive) | 22.9 µM (inactive) | 5.47 µM (inactive) | 15.2 µM (inactive) | 9.14 µM (inactive) | 3.71 µM (inactive) | 19.9 µM (inactive) | 17.5 µM (inactive) | 15.2 µM (inactive) | 9.53 µM (inactive) | 13.3 µM (inactive) | 12.8 µM (inactive) | 7.06 µM (inactive) | 4.37 µM (inactive) | 19.2 µM (inactive) | – | – |
| Cc1c2c(ccc3ccccc32)c[n+]2ccccc12 | 86.9 | 2.27 µM (inactive) | 1.09 µM (active) | 20.9 µM (inactive) | – | 3.56 µM (inactive) | 49.7 µM (inactive) | 2.25 µM (inactive) | – | – | 44.4 µM (inactive) | 15.8 µM (inactive) | 12 µM (inactive) | 6.59 µM (inactive) | > 10 µM (inactive) | 9.46 µM (inactive) | 3.24 µM (inactive) | 40.6 µM (inactive) | – | – |
| C=CCN1C(=O)C(=O)N(CC=C)C(=O)C1=O | > 100 | > 100 µM (inactive) | > 100 µM (inactive) | > 100 µM (inactive) | > 100 µM (inactive) | > 100 µM (inactive) | > 100 µM (inactive) | > 100 µM (inactive) | > 100 µM (inactive) | > 100 µM (inactive) | – | – | > 100 µM (inactive) | > 100 µM (inactive) | > 100 µM (inactive) | > 100 µM (inactive) | > 100 µM (inactive) | > 100 µM (inactive) | – | – |
